Data reported in patent US8569265B2, “Deuterated analogs of (4S)-4-ethyl-4-hydroxy-11-[2- (trimethylsilyl)ethyl]-1H-pyrano[3′, 4′:6,7] indolizino [1,2-b]quinoline-3,14(4H, 12H)-dione and methods of use thereof” (BioNumerik Pharmaceuticals, Inc., priority 2011, dated 2013).
Like-named read-outs stand apart in the source and are kept apart here.

How the values were obtained:
[1] = tested on: wild-type human ovarian cancer cells (A2780/WT); assay: Sulforhodamine B (SRB) cytotoxicity assay, A2780/WT; type: cell-based; conditions: for IC50: Homo sapiens, A2780/WT, 2 hour drug treatments; for IC50 values in words (inhibition of cell growth): wild-type (A2780/WT) ovarian cancer cells
From the text: (§1) The sulforhodamine B (SRB) assay was used to assess cytotoxicity and absorbance at 570 nm (A570) in order to calculate the percentage of cell control (or percent cell survival) for wild-type human ovarian cancer cells (A2780/WT) and doxorubicin-resistant human ovarian cancer cells (A2780/DX5) treated with BNP1350, BNP10120 (a di-deuterated analog of BNP1350) and BNP10121 (a tetra-deuterated analog of BNP1350).
(§2) Roswell Park Memorial Institute (RPMI 1640) medium, fetal bovine serum (FBS), and L-glutamine were purchased from Gibco BRL. Drugs were dissolved in sterile dimethylsulfoxide (DMSO), from American Type Culture Collection (ATCC) for stock solutions (2.5 to 5.0 mM). Subsequent dilutions were made using cell culture medium (prior to adding the drug to cells). SRB was purchased from Sigma and dissolved in 1.0 percent acetic acid. Trichloroacetic acid was purchased from VWR International. BNP1350, BNP10120 (a di-deuterated analog of BNP1350) and BNP10121 (a tetra-deuterated analog of BNP1350) were synthesized and purified by BioNumerik Pharmaceuticals, Inc.
(§3) Cells were manipulated in a Class IIA/B3 Biological Safety Cabinet (Forma Scientific) and maintained at 37° C. in a humidified atmosphere containing 5% CO2 in a water-jacketed cell culture incubator (Forma Scientific). Cells were counted using a Coulter-Z1 counter (Beckman-Coulter). Following drug treatment, plates were washed using a Biomek 2000 station (Beckman) and, following exposure to SRB dye, plates were washed using an automated plate washer (Model EL404, Bio-Tek Instruments). Percentage of control was correlated to A570 values and determined using a Model EL800 plate reader (Bio-Tek Instruments).
(§4) Wild-type human ovarian cancer cells (A2780/WT) and doxorubicin-resistant human ovarian cancer cells (A2780/DX5) were cultured in RPMI 1640 medium supplemented with 10% fetal bovine serum and 2 mM L-glutamine, and grown in a 37° C. incubator with 5% CO2. Population doubling times for the two cell lines used in this study encompassed a total of five cell doublings corresponding to approximately 5 days for A2780/WT and A2780/DX5 cells. Both cell lines were maintained as monolayered cultures in T-25 or T-75 flasks and then seeded to microtiter plate wells for experiments described herein.
(§5) In brief, cells were seeded (500 cells/well in 100 μL total volume) into 96-well microtiter plates and allowed to attach for 24 hours prior to treatment with BNP1350, BNP10120 or BNP10121 for 2 hours. The aforementioned compounds were dissolved in DMSO for use in cytotoxicity experiments where inhibition of cell growth was measured using the SRB assay.
(§6) Following this 2 hour drug treatment, the BNP1350, BNP10120 and BNP10121 were removed, cells were washed with drug-free media (200 μL) and then drug-free media (200 μL) was added to the cells and cells were allowed to continue growing at 37° C. with 5% CO2 before the SRB assay was performed (total experiment time from time of seeding was 5 days, during which time a total of 5 cell doublings had occurred).
(§7) Prior to SRB assays, cell viability was monitored by evaluation of microtiter plate wells. Dead cells detach and float while living cells remain attached to the bottom of the cell well.
(§8) The sulforhodamine B (SRB) cytotoxicity assay (see, Skehan P, et al., New colorimetric cytotoxicity assay for anticancer-drug screening. J. Natl. Cancer Inst. 82:1107-1112 (1990)) was used to determine the cytotoxic effects of BNP1350, BNP10120 or BNP10121 on cell growth in vitro. Briefly, after the medium was aspirated from individual plate wells, trichloroacetic acid (100 μL of 10.0% solution) was added to each well, and the plates were incubated at 4° C. for at least 1 hour. The plates were washed five-times with water using an automated microplate washer (Model EL 404, Bio-Tek Instruments), SRB solution (100 μL of 0.4 grams SRB dissolved in 100 mL 1.0 percent acetic acid) was added, and plates remained at room temperature for 15 minutes. […]

[2] = tested on: doxorubicin-resistant human ovarian cancer cells (A2780/DX5); assay: Sulforhodamine B (SRB) cytotoxicity assay, A2780/DX5; type: cell-based; conditions: for IC50: Homo sapiens, A2780/DX5, 2 hour drug treatments; for IC50 values in words (inhibition of cell growth): doxorubicin resistant (A2780/DX5) ovarian cancer cells
From the text: as §1, §2, §3, §4, §5, §6, §7, §8

[3] = tested on: PHA-stimulated lymphocytes and normal glial cells; conditions: 90% D2O; cited from earlier work
[4] = tested on: malignant melanoma and carcinoma cells (colon carcinoma, glioblastoma, and small lung cell cancer cells); conditions: cited from earlier work
[5] = clinical trial; cited from earlier work
[6] = average of Test 1 and Test 2, read-out: IC50 Average

| Compound | IC50 [1, 6] [nM] | IC50 ([1]; read-out: IC50 Test 1) [nM] | IC50 ([1]; read-out: IC50 Test 2) [nM] | IC50 values in words (inhibition of cell growth) [1] | IC50 [2, 6] [nM] | IC50 ([2]; read-out: IC50 Test 1) [nM] | IC50 ([2]; read-out: IC50 Test 2) [nM] | IC50 values in words (inhibition of cell growth) [2] | cells killed [3] [%] | cells killed ([4]; 90% D2O, malignant melanoma and carcinoma cells) [%] | viable fraction of malignant cells ([4]; 9 days of treatment with 90% D2O) | rate of metabolism relative to Effexor [5] | time after which pharmacologically-effective levels of the drug were maintained [5] [hours] |
| --- | --- | --- | --- | --- | --- | --- | --- | --- | --- | --- | --- | --- | --- |
| CC[C@@]1(O)C(=O)OCc2c1cc1n(c2=O)Cc2c-1nc1ccccc1c2CC[Si](C)(C)C [BNP1350, (4S)-4-Ethyl-4-hydroxy-11-[2-(trimethylsilyl)ethyl]-1H-pyrano[3′,4′:6,7]indolizino[1,2-b]quinoline-3,14(4H,12H)-dione, reference compound] | 1.9 | 1.9 | 1.8 | nanomolar | 7.3 | 7.7 | 6.9 | nanomolar | – | – | – | – | – |
| [2H]C1([2H])c2c(nc3ccccc3c2CC[Si](C)(C)C)-c2cc3c(c(=O)n21)COC(=O)[C@]3(O)CC [BNP10120, (4S)-12,12-Dideutero-4-ethyl-4-hydroxy-11-[2-(trimethylsilyl)ethyl]-1H-pyrano[3′,4′:6,7]indolizino[1,2-b]quinoline-3,14(4H,12H)-dione] | 2.6 | 3.5 | 1.6 | nanomolar | 8.5 | 9.9 | 7.1 | nanomolar | – | – | – | – | – |
| [2H]C([2H])(c1c2c(nc3ccccc13)-c1cc3c(c(=O)n1C2)COC(=O)[C@]3(O)CC)C([2H])([2H])[Si](C)(C)C [BNP10121, (S)-4-Ethyl-4-hydroxy-11-[1,1,2,2-tetradeutero-2-(trimethylsilyl)ethyl]-1H-pyrano[3′,4′:6,7]indolizino[1,2-b]quinoline-3,14(4H,12H)-dione] | 6.1 | 6.1 | 6 | nanomolar | 11.7 | 12 | 11.3 | nanomolar | – | – | – | – | – |
| [2H]O[2H] [D2O] | – | – | – | – | – | – | – | – | 5 | 70 | about 0.1% | – | – |
| [2H]C([2H])([2H])Oc1ccc(C(CN(C([2H])([2H])[2H])C([2H])([2H])[2H])C2(O)CCCCC2)cc1 (centres unmarked) [SD-254] | – | – | – | – | – | – | – | – | – | – | – | half as fast | 24 |
